The text below walks through data of patent US7306789B2, “Method of stimulating hair growth using benzopyrans” (Warner-Lambert Company, LLC, priority 2002, dated 2007).

The subject of one series is Female C3H/HeN mice. Put plainly: Mouse hair growth model (topical administration). It counts as in vivo. As to conditions: for Day on which 50% incidence of hair growth occurred: topical. The procedure:
The effect of the benzopyran compound (3S,4R)-3,4-dihydro-4-(2,3-dihydro-2-methyl-3-oxopyridazin-6-yl)oxy-3-hydroxy-6-(3-hydroxyphenyl)sulphonyl-2,2,3-trimethyl-2H-benzo[b]pyran (Compound 1) on hair growth was evaluated by topical administration of the compound to mice. Compound 1 may be made according to the methods described in U.S. Pat. Nos. 5,912,244 and 6,071,938.
Female C3H/HeN mice, 42-46 days old (Charles River Laboratories, Raleigh, N.C.) were used for the study. The hair follicles of mice at this age are in the second telogen phase, which usually lasts from 6 to 9 weeks, providing a wide enough window to test compounds for their ability to induce earlier onset of anagen. Only mice with pink skin, a visual indication of the telogen phase, were selected for inclusion in the study.
Test compounds, including Compound 1, the potassium channel opener minoxidil (marketed as Rogaine® containing 2% minoxidil), and cyclosporin A, were dissolved in a vehicle consisting of propylene glycol (30%) and ethanol (70%). A test compound dissolved in vehicle, or a vehicle control (30/70 propylene glycol/ethanol, unless otherwise specified) was applied topically to the clipped dorsal region of the mice in each test group (7-10 mice) in a volume of 20 μl/cm^2. Treatments were applied once or twice daily, 5 days/week.
The treatment area was observed and graded for signs of hair growth and local skin irritation. The hair growth response was quantified by recording, for each animal, the day on which signs of hair growth first appeared over the treated area. The first sign of anagen was the darkening of skin color as melanocytes in the follicles started to synthesize melanin in preparation for the production of pigmented hairs. The response time was measured as the number of days following initiation of treatment when hair growth was present in 50% of the mice in a given group.

Series [1] in a line: In vitro metabolism experiments (conjugation). It counts as in vitro ADME. From the text:
(§1) The compound is cleared by conjugation to produce the glucuronide and sulfate metabolites. The compound and its metabolites are rapidly taken up by the liver and excreted in the bile. Thus, following topical administration, any absorbed benzopyran is subject to high hepatic extraction, and thus low systemic exposure.

Another series in a line: In vivo clearance in rat. The conditions noted are these: low exposure to unchanged drug following oral or systemic administration.
Excerpt: as §1

The next series can be described thus: In vivo clearance in dog. As to conditions: low exposure to unchanged drug following oral or systemic administration.
Excerpt: as §1

A short description of series [2]: In vivo clearance in human. The conditions noted are these: low exposure to unchanged drug following oral or systemic administration.
Excerpt: as §1

As to `Cn1nc(O[C@@H]2c3cc(S(=O)(=O)c4cccc(O)c4)ccc3OC(C)(C)[C@@]2(C)O)ccc1=O` [Compound 1, (3S,4R)-3,4-dihydro-4-(2,3-dihydro-2-methyl-3-oxopyridazin-6-yl)oxy-3-hydroxy-6-(3-hydroxyphenyl)sulphonyl-2,2,3-trimethyl-2H-benzo[b]pyran], in the series with Female C3H/HeN mice (all cases of hair growth stimulation), the “Quality of hair growth over the treated area” value was “full and thick hair growth”. The Hair growth stimulation result with Female C3H/HeN mice (applied topically at 0.3% or 1% once or twice daily for five days or up to 4 weeks) was “stimulated hair growth”. In the series on Female C3H/HeN mice (concentrations greater than 1%), the “Efficacy relative to lower doses” value was “less efficacious than lower doses”. Also, the “Behaviour of drug on the skin” value in the series on Female C3H/HeN mice (concentrations greater than 1%, vehicle propylene glycol/ethanol) is listed as “precipitation of drug on the skin”. Besides, in the series with Female C3H/HeN mice (concentrations lower than 0.3% (0.1% to 0.03%)), the Hair growth entry is on record as “not observed”. Moreover, the “Local irritation or other adverse effects” value in the series with Female C3H/HeN mice (mice treated for 2 weeks with 5%) is listed as “No local irritation or other adverse effects”. For the same compound, the “Day on which 50% incidence of hair growth occurred” value (“Day on which 50% incidence” for short) in the series with Female C3H/HeN mice (dose 0.03%, 1 dose/day, duration 1 week, study 5 (vehicle >35)) is above 35 days; in the series with Female C3H/HeN mice (dose 0.03%, 1 dose/day, duration 1 week, study 6 (vehicle >35)) it was above 35 days; with Female C3H/HeN mice (dose 0.03%, 1 dose/day, duration 1 week, study 7 (vehicle >35)), above 35 days; in the series with Female C3H/HeN mice (dose 0.03%, 1 dose/day, duration 1 week, study 9 (vehicle >35)), above 35 days; in the series with Female C3H/HeN mice (dose 0.1%, 1 dose/day, duration 1 week, study 5 (vehicle >35)) it was above 35 days; in the series with Female C3H/HeN mice (dose 0.1%, 1 dose/day, duration 1 week, study 6 (vehicle >35)), above 35 days. In addition, the “Day on which 50% incidence” value in the series on Female C3H/HeN mice (dose 0.3%, 1 dose/day, duration 1 week, study 4 (vehicle 25)) is 11 days; in the series on Female C3H/HeN mice (dose 0.3%, 1 dose/day, duration 1 week, study 5 (vehicle >35)), above 35 days; in the series on Female C3H/HeN mice (dose 0.3%, 1 dose/day, duration 1 week, study 6 (vehicle >35)), above 35 days; in the series with Female C3H/HeN mice (dose 0.3%, 1 dose/day, duration 1 week, study 7 (vehicle >35)), 14 days; with Female C3H/HeN mice (dose 0.3%, 1 dose/day, duration 1 week, study 9 (vehicle >35)) it was 16 days; in the series on Female C3H/HeN mice (dose 0.3%, 1 dose/day, duration 1 week, study 10 (vehicle >35)), 21 days. Besides, the “Day on which 50% incidence” value was 25 days in the series on Female C3H/HeN mice (dose 0.3%, 1 dose/day, duration 1 week, study 11 (vehicle 56)); above 35 days in the series with Female C3H/HeN mice (dose 0.3%, 1 dose/day, duration 1 week, study 12 (vehicle >35)); 28 days in the series with Female C3H/HeN mice (dose 0.3%, 1 dose/day, duration 1 week, study 13 (vehicle 56)); 23 days with Female C3H/HeN mice (dose 0.3%, 1 dose/day, duration 4 weeks, study 10 (vehicle >35)); 16 days with Female C3H/HeN mice (dose 0.3%, 1 dose/day, duration 4 weeks, study 12 (vehicle >35)); 35 days with Female C3H/HeN mice (dose 0.3%, 1 dose/day, duration 4 weeks, study 13 (vehicle 56)). In addition, the “Day on which 50% incidence” value in the series with Female C3H/HeN mice (dose 1%, 1 dose/day, duration 1 week, study 3 (vehicle 21)) was 14 days; in the series with Female C3H/HeN mice (dose 1%, 1 dose/day, duration 1 week, study 4 (vehicle 25)), 11 days; in the series on Female C3H/HeN mice (dose 1%, 1 dose/day, duration 1 week, study 5 (vehicle >35)), above 35 days; in the series on Female C3H/HeN mice (dose 1%, 1 dose/day, duration 1 week, study 8 (vehicle >35)), 21 days; with Female C3H/HeN mice (dose 1%, 1 dose/day, duration 1 week, study 9 (vehicle >35)), 28 days; with Female C3H/HeN mice (dose 1%, 1 dose/day, duration 1 week, study 10 (vehicle >35)), above 35 days. Also, the “Day on which 50% incidence” value in the series with Female C3H/HeN mice (dose 1%, 1 dose/day, duration 1 week, study 12 (vehicle >35)) was 16 days; in the series on Female C3H/HeN mice (dose 1%, 1 dose/day, duration 4 weeks, study 10 (vehicle >35)) it was above 35 days; in the series with Female C3H/HeN mice (dose 1%, 1 dose/day, duration 4 weeks, study 12 (vehicle >35)), 18 days; with Female C3H/HeN mice (dose 1%, 2 doses/day, duration 2 weeks, study 1 (vehicle >35)) it was 25 days; in the series with Female C3H/HeN mice (dose 1%, 2 doses/day, duration 2 weeks, study 2 (vehicle >35)), 28 days. The Rate of conjugation result in series [1] is reported as “high”. Moreover, the Clearance entry (in “In vivo clearance in rat”; in “In vivo clearance in dog”; in series [2]) was “rapid clearance” each time.

Take `Nc1cc(N2CCCCC2)nc(N)[n+]1[O-]` [Minoxidil, minoxidil, reference compound]: the “Day on which 50% incidence” value was 53 days in the series on Female C3H/HeN mice (dose 2.5%, 1 dose/day, duration 1 week, study 13 (vehicle 56)); 39 days in the series on Female C3H/HeN mice (dose 2.5%, 1 dose/day, duration 4 weeks, study 13 (vehicle 58)); 56 days in the series on Female C3H/HeN mice (dose 5%, 1 dose/day, duration 1 week, study 13 (vehicle 56)); 37 days in the series with Female C3H/HeN mice (dose 5%, 1 dose/day, duration 4 weeks, study 13 (vehicle 58)).
